From patent US20080031986A1 (Metaproteomics, LLC, priority 2005, published 2008)

How the values were obtained:
db/db mice = experiment: Non-fasting serum glucose and insulin in db/db diabetic mice; format: in vivo, mouse; details: three daily doses by gavage
Method: The Model—Male, C57BLKS/J m^+/m^+Lepr^db (db/db) mice were used to assess the potential of the test materials to reduce fasting serum glucose or insulin concentrations.
Testing Procedure—Test substances were administered daily by gavage in 0.2% Tween-80. Serum was collected from the retroorbital sinus before the initial dose and ninety minutes after the third and final dose. Non-fasting serum glucose was determined enzymatically by the mutarotase/glucose oxidase method and serum insulin was determined by a mouse specific ELISA.

3T3-L1 adipocytes = experiment: Lipogenesis (Oil Red O / BODIPY) in 3T3-L1 adipocytes; format: cell-based, murine; details: for adipogenic response versus positive controls indomethacin and troglitazone: Day 0 to D6/7
Method: Prior to experiments, cells were cultured in DMEM containing 10% FBS-HI added 50 units penicillin/ml and 50 μg streptomycin/ml, and maintained in log phase prior to experimental setup. Cells were grown in a 5% CO2 humidified incubator at 37° C. Components of the pre-confluent medium included (1) 10% FBS/DMEM containing 4.5 g glucose/L; (2) 50 U/ml penicillin; and (3) 50 μg/ml streptomycin. Growth medium was made by adding 50 ml of heat inactivated FBS and 5 ml of penicillin/streptomycin to 500 ml DMEM. This medium was stored at 4° C. Before use, the medium was warmed to 37° C. in a water bath.
3T3-T1 cells were seeded at an initial density of 6×10^4 cells/cm^2 in 24-well plates. For two days, the cells were allowed grow to reach confluence. Following confluence, the cells were forced to differentiate into adipocytes by the addition of differentiation medium; this medium consisted of (1) 10% FBS/DMEM (high glucose); (2) 0.5 mM methylisobutylxanthine; (3) 0.5 μM dexamethasone and (4) 10 μg/ml insulin (MDI medium). After three days, the medium was changed to post-differentiation medium consisting of 10 μg/ml insulin in 10% FBS/DMEM.
Whenever fresh media were added, fresh test material was also added.
Monolayer cells were washed with PBS (phosphate buffered saline, Mediatech) and fixed with 10% formaldehyde for ten minutes. Fixed cells were stained with an Oil Red O working solution of three parts 0.6% Oil Red O/isopropanol stock solution and two parts water for one hour and the excess stain was washed once with water. The resulting stained oil droplets were extracted from the cells with isopropanol and quantified by spectrophotometric analysis at 540 nm (MEL312e BIO-KINETICS READER, Bio-Tek Instruments, Winooski, Vt.).
Briefly, media were removed and cells were washed once with non-sterile PBS. A stock 1000× BODIPY/DMSO solution was made by dissolving 1 mg BODIPY in 1 ml DMSO (1,000 μg BODIPY/ml). A working BODIPY solution was then made by adding 10 μl of the stock solution to 990 μl PBS for a final BODIPY concentration in the working solution of 0.01 μg/μl. One-hundred μl of this working solution (1 μg BODIPY) was added to each well of a 96-well microtiter plate. After 15 min on an orbital shaker (DS-500, VWR Scientific Products, South Plainfield, N.J.) at ambient temperature, the cells were washed with 100 μl PBS followed by the addition of 100 μl PBS for reading for spectrofluorometric determination of BODIPY incorporation into the cells. […]
Test materials were added in dimethyl sulfoxide at Day 0 of differentiation and every two days throughout the maturation phase (Day 6/7). […] Differentiated 3T3-L1 cells were stained with 0.2% Oil Red O. The resulting stained oil droplets were dissolved with isopropanol and quantified by spectrophotometric analysis at 530 nm.

DBA/J mice = experiment: Collagen induced rheumatoid arthritis murine model; format: in vivo, mouse; details: 10 mg/kg, days 30-42
COX-2 = details: Warner et al. 1999; cited from earlier work
[1] = tested on: insulin-resistant 3T3-L1 adipocytes; experiment: Adiponectin secretion from insulin-resistant 3T3-L1 adipocytes; format: cell-based, murine; details: slope of Hofstee plot
Method: 3T3-L1 cells were seeded at an initial density of 1×10^4 cells/cm^2 in 96-well plates. For two days, the cells were allowed grow to reach confluence. Following confluence, the cells were forced to differentiate into adipocytes by the addition of differentiation medium; this medium consisted of (1) 10% FBS/DMEM (high glucose); (2) 0.5 mM methylisobutylxanthine; (3) 0.5 μM dexamethasone and (4) 10 μg/ml insulin (MDI medium). From Day 3 through Day 5, the medium was changed to post-differentiation medium consisting of 10 μg/ml insulin in 10% FBS/DMEM.
Briefly, on Day 6, cells were maintained in serum-free media containing 0.5% bovine serum albumin (BSA) for three hours and then treated with 1 μg insulin/ml plus solvent or insulin plus test material. […] Twenty-four hours later, the supernatant medium was sampled for adiponectin determination.
Statistical Calculations and Interpretation—All assays were preformed in duplicate. […] Differences between the doses were determined using the student's t-test without correction for multiple comparisons; the nominal five percent probability of a type I error was selected.
Substituting {relative adiponectin secretion/[concentration]} for the independent variable v/[S] and {relative adiponectin secretion} for the dependant variable {v}, produced a relationship of the form y=mx+b. […]

[2] = tested on: TNFα-treated 3T3-L1 adipocytes; experiment: Adiponectin secretion from TNFα-treated 3T3-L1 adipocytes; format: cell-based, murine; details: for maximum increase of adiponectin secretion over TNFα solvent control: 10 ng TNFα/ml
Method: 3T3-L1 cells were seeded at an initial density of 1×10^4 cells/cm^2 in 96-well plates. For two days, the cells were allowed grow to reach confluence. Following confluence, the cells were forced to differentiate into adipocytes by the addition of differentiation medium; this medium consisted of (1) 10% FBS/DMEM (high glucose); (2) 0.5 mM methylisobutylxanthine; (3) 0.5 μM dexamethasone and (4) 10 μg/ml insulin (MDI medium). From Day 3 through Day 5, the medium was changed to post-differentiation medium consisting of 10% FBS in DMEM. […] On Day 6, the supernatant medium was sampled for adiponectin determination.
Statistical Calculations and Interpretation—All assays were preformed in duplicate. […] Differences among the doses and test agents were determined using the Student's t-test without correction for multiple comparisons; the nominal five percent probability of a type I error was selected.

COc1cc(O)c(CC=C(C)C)c(O)c1C(=O)/C=C/c1ccc(O)cc1 [Xanthohumol, xanthohumol]
serum glucose or insulin (db/db mice): reduction in serum glucose with no effect on insulin
adipogenic response versus positive controls indomethacin and troglitazone (3T3-L1 adipocytes): comparable to indomethacin and troglitazone

CN(C)C(=N)N=C(N)N [metformin, reference compound]
lipogenic response / lipogenic index relative to solvent control (3T3-L1 adipocytes; Oil Red O, Acacia samples 50 μg/ml): 0.79

C[C@]12C=CC(=O)C=C1CC[C@@H]1[C@@H]2[C@@H](O)C[C@@]2(C)[C@H]1CC[C@]2(O)C(=O)CO [prednisolone]
arthritic index (DBA/J mice): Significant reductions

CC(=O)Oc1ccccc1C(=O)O [Aspirin, aspirin]
published values for direct COX-2 inhibition (COX-2): 1.4 to 50 µg/mL

CC(C)CCC1=C(O)C(C(=O)C(C)C)=C(O)C(CCC(C)C)(CCC(C)C)C1=O [Hexahydro colupulone, hexahydrocolupulone]
Test Material at Half Maximal Secretion [1]: 3.2 µg/mL
adipogenic response versus positive controls indomethacin and troglitazone (3T3-L1 adipocytes): failed to elicit a lipogenic response greater than the solvent controls

CCc1ccc(CCOc2ccc(CC3SC(=O)NC3=O)cc2)nc1 (centres unmarked) [Pioglitazone, pioglitazone]
maximum increase of adiponectin secretion over TNFα solvent control [2]: 80%
Adiponectin Index, Observed ([2]; 1.0 μg/ml, indexed to TNFα control (Table 26)): 1.80

Beta acids
adipogenic response versus positive controls indomethacin and troglitazone (3T3-L1 adipocytes): comparable to indomethacin and troglitazone

Cc1c(C)c2c(c(C)c1O)CCC(C)(COc1ccc(CC3SC(=O)NC3=O)cc1)O2 (centres unmarked) [Troglitazone, troglitazone]
maximum increase of adiponectin secretion over TNFα solvent control [2]: 51%
